# Experiments:
# [1] = target: T1, Sphingomyelinase from human placenta (human L-ASM) (Homo sapiens, UniProt P17405); experiment: SMase assay with natural substrate sphingomyelin; type: biochemical; settings: maximal inhibition; for Maximal resp., natural substrate (pH 5.0): pH 5.0 buffer; for Maximal resp., natural substrate (pH 6.5): pH 6.5 buffer
# T1 sequence (P17405 47-631): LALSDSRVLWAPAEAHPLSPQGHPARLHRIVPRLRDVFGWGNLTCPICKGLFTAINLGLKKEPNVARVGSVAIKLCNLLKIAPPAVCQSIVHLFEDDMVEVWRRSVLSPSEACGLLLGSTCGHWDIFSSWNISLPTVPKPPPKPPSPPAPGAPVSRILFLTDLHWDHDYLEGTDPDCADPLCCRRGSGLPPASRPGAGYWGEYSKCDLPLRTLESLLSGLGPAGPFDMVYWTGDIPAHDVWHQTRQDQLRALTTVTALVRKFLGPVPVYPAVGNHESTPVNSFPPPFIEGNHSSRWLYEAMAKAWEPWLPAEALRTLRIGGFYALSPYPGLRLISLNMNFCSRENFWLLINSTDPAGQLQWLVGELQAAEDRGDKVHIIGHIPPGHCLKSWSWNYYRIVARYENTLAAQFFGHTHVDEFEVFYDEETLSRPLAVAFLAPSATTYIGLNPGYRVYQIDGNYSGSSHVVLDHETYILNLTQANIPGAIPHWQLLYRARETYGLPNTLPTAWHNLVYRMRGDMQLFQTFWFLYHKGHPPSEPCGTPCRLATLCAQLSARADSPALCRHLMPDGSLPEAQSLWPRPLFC
# [2] = target: T1, Sphingomyelinase from human placenta (human L-ASM); experiment: SMase assay using HMU-PC profluorescence substrate; type: biochemical; settings: maximal inhibition, artificial substrate HMU-PC
SMILES,"Maximal resp., natural substrate (pH 5.0) [1] [%]","Maximal resp., natural substrate (pH 6.5) [1] [%]","Maximal resp., HMU-PC substrate (pH 5.0) [2] [%]"
O=c1c(O)c(-c2cccs2)oc2ccccc12 [MLS000097140],81.7,82.7,6.2
S=c1nc(C2CC2)[nH]c2ccccc12 [MLS000097294],103.2,104.4,99.1
O=S(=O)(Nc1ccc(N=Nc2ccc(O)c3ccccc23)cc1)c1ccccc1 [MLS000707545],72.0,77.2,93.4
O=C1CC(c2ccccc2)CC(=O)C1CS(=O)(=O)c1ccccc1 (stereo not drawn) [MLS000720877],31.1,61.6,99.2
Clc1ccc(SCCOCCN2CCCCCC2)cc1.O=C(O)C(=O)O [MLS001164567],97.8,100.7,15.8

# Other lines, results leading:
"Maximal resp., natural substrate (pH 5.0) [1] [%]","Maximal resp., natural substrate (pH 6.5) [1] [%]","Maximal resp., HMU-PC substrate (pH 5.0) [2] [%]",SMILES
79.1,84.8,82.1,COC(=O)C1=C(C)N(Cc2ccc(C)cc2)C(=O)/C1=C\c1ccc(O)c(OC)c1 [MLS000574110]
43.4,71.2,79.0,CCS(=O)(=O)C1=NN2C(=N)/C(=C\c3ccc(OC(=O)c4ccco4)cc3)C(=O)N=C2S1 [MLS000950682]
9.1,26.8,51.8,COc1cc(C(=O)Nc2scc(-c3ccc(Br)cc3)c2C(=O)O)cc(OC)c1OC [MLS001164606]
0.8,8.6,31.4,COc1ccc(C2=NN(C(=O)COC(=O)c3ccc(S(C)(=O)=O)c([N+](=O)[O-])c3)C(c3ccco3)C2)cc1 (stereo not drawn) [MLS002248315]

# From publication PMC4138601 (Analytical and bioanalytical chemistry, 2012)
